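Dose response: 5 concentrations. Exposure: 48 h. Format: 96-well plates. Endpoint: linear interpolation; highest concentration if not reached. GI50 = concentration required for 50% inhibition of growth.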 The source made the active and inactive calls. Cut-off read from the data, not from the text of the source: active = GI50 up to about 1.1 µM and inactive = higher.
Tests used:
Experiment in all cases: NCI-60 cell line screen, 48 h
HT-29 = system: HT-29
TK-10 = system: TK-10
HL-60 = system: HL-60
SK-OV-3 = system: SK-OV-3
NCI/ADR-RES = system: NCI/ADR-RES
MDA-N = system: MDA-N
786-0 = system: 786-0
SR = system: SR
NCI-H522 = system: NCI-H522
SK-MEL-5 = system: SK-MEL-5
SNB-19 = system: SNB-19
U-251 = system: U-251
UACC-62 = system: UACC-62
COLO 205 = system: COLO 205
OVCAR-8 = system: OVCAR-8
M14 = system: M14
NCI-H460 = system: NCI-H460
K562 = system: K562
KM12 = system: KM12
MCF7 = system: MCF7
CAKI-1 = system: CAKI-1
BT-549 = system: BT-549
Hs-578T = system: Hs-578T
UACC-257 = system: UACC-257
CCRF-CEM = system: CCRF-CEM
SF-268 = system: SF-268
LOX IMVI = system: LOX IMVI
SF-295 = system: SF-295
UO-31 = system: UO-31
HOP-62 = system: HOP-62
OVCAR-4 = system: OVCAR-4
SW-620 = system: SW-620
OVCAR-5 = system: OVCAR-5
SN12C = system: SN12C
ACHN = system: ACHN
DU-145 = system: DU-145
NCI-H23 = system: NCI-H23
A549 = system: A549
NCI-H226 = system: NCI-H226
EKVX = system: EKVX
HCT-116 = system: HCT-116
RXF 393 = system: RXF 393
SF-539 = system: SF-539
HOP-92 = system: HOP-92
HCT-15 = system: HCT-15
PC-3 = system: PC-3
T47D = system: T47D
MDA-MB-435 = system: MDA-MB-435
Malme-3M = system: Malme-3M
MOLT-4 = system: MOLT-4
OVCAR-3 = system: OVCAR-3
MDA-MB-231 = system: MDA-MB-231
RPMI-8226 = system: RPMI-8226
IGROV-1 = system: IGROV-1
HCC 2998 = system: HCC 2998
SK-MEL-28 = system: SK-MEL-28
SK-MEL-2 = system: SK-MEL-2
SNB-75 = system: SNB-75

Measured: GI50

CCCCC1Cc2cc(O)ccc2-c2nc3cc(O)ccc3n21.CCCCC1Cc2cc(O)ccc2-c2nc3ccc(O)cc3n21 (stereo not drawn)
11 µM: HCT-15
inactive: HT-29 16.3 µM | TK-10 18.6 µM | HL-60 19.1 µM | SK-OV-3 18.5 µM | NCI/ADR-RES 18.6 µM | MDA-N 14.3 µM | 786-0 19 µM | SR 12.6 µM | NCI-H522 11.1 µM | SK-MEL-5 13.5 µM | SNB-19 11 µM | U-251 14.4 µM | UACC-62 12.8 µM | COLO 205 15.7 µM | OVCAR-8 21.4 µM | M14 15.3 µM | NCI-H460 14.8 µM | K562 10.7 µM | KM12 19.4 µM | MCF7 19.2 µM | CAKI-1 23.7 µM | BT-549 19.2 µM | Hs-578T 16.3 µM | UACC-257 15.8 µM | CCRF-CEM 19.2 µM | SF-268 12 µM | LOX IMVI 16.8 µM | SF-295 15.2 µM | UO-31 13.1 µM | HOP-62 14.4 µM | OVCAR-4 7.45 µM | SW-620 16.9 µM | OVCAR-5 16.6 µM | SN12C 16.5 µM | ACHN 13.9 µM | DU-145 28.5 µM | NCI-H23 21.9 µM | A549 16.3 µM | NCI-H226 18.4 µM | EKVX 17.2 µM | HCT-116 14 µM | RXF 393 19.1 µM | SF-539 14.8 µM | HOP-92 4.28 µM | PC-3 12.6 µM | T47D 19.9 µM | MDA-MB-435 11.9 µM | Malme-3M 21.8 µM | MOLT-4 13.6 µM | OVCAR-3 21.7 µM | MDA-MB-231 13.6 µM | RPMI-8226 12.4 µM | IGROV-1 13 µM | HCC 2998 14.3 µM

NS(=O)(=O)c1ccc(NC(NC(=O)C(C(F)(F)F)C(F)(F)F)(C(F)(F)F)C(F)(F)F)cc1
active: TK-10 0.305 µM
inactive: HT-29 > 100 µM | HL-60 > 100 µM | SK-OV-3 > 100 µM | NCI/ADR-RES > 100 µM | MDA-N > 100 µM | SK-MEL-28 > 100 µM | 786-0 > 100 µM | SR > 100 µM | NCI-H522 > 100 µM | SK-MEL-5 > 100 µM | SNB-19 > 100 µM | U-251 > 100 µM | UACC-62 > 100 µM | COLO 205 > 100 µM | OVCAR-8 > 100 µM | M14 > 100 µM | NCI-H460 > 100 µM | K562 > 100 µM | KM12 > 100 µM | MCF7 > 100 µM | CAKI-1 > 100 µM | BT-549 > 100 µM | Hs-578T > 100 µM | UACC-257 > 100 µM | SK-MEL-2 > 100 µM | CCRF-CEM > 100 µM | SF-268 > 100 µM | LOX IMVI > 100 µM | SF-295 > 100 µM | UO-31 > 100 µM | SNB-75 > 100 µM | HOP-62 > 100 µM | OVCAR-4 > 100 µM | SW-620 > 100 µM | OVCAR-5 > 100 µM | SN12C > 100 µM | ACHN > 100 µM | DU-145 > 100 µM | NCI-H23 > 100 µM | A549 > 100 µM | NCI-H226 > 100 µM | EKVX > 100 µM | HCT-116 > 100 µM | RXF 393 > 100 µM | SF-539 > 100 µM | HOP-92 > 100 µM | PC-3 > 100 µM | T47D > 100 µM | MDA-MB-435 > 100 µM | Malme-3M > 100 µM | MOLT-4 > 100 µM | OVCAR-3 > 100 µM | MDA-MB-231 > 100 µM | RPMI-8226 > 100 µM | IGROV-1 > 100 µM | HCC 2998 > 100 µM
> 100 µM: HCT-15

Cc1c2ccccc2cc2nc3ccccc3n12
active: TK-10 0.00668 µM
inactive: HT-29 > 10 µM | HL-60 > 10 µM | SK-OV-3 > 10 µM | NCI/ADR-RES > 10 µM | MDA-N > 10 µM | SK-MEL-28 > 10 µM | 786-0 > 10 µM | SR > 10 µM | NCI-H522 > 10 µM | SK-MEL-5 > 10 µM | SNB-19 > 10 µM | U-251 > 10 µM | UACC-62 > 10 µM | COLO 205 > 10 µM | OVCAR-8 > 10 µM | M14 > 10 µM | NCI-H460 > 10 µM | K562 > 10 µM | KM12 > 10 µM | MCF7 > 10 µM | CAKI-1 > 10 µM | BT-549 > 10 µM | Hs-578T > 10 µM | UACC-257 > 10 µM | SK-MEL-2 > 10 µM | CCRF-CEM > 10 µM | SF-268 > 10 µM | SF-295 > 10 µM | SNB-75 > 10 µM | HOP-62 > 10 µM | OVCAR-4 > 10 µM | SW-620 > 10 µM | OVCAR-5 > 10 µM | SN12C > 10 µM | ACHN > 10 µM | DU-145 > 10 µM | NCI-H23 > 10 µM | A549 > 10 µM | NCI-H226 > 10 µM | EKVX > 10 µM | HCT-116 > 10 µM | RXF 393 > 10 µM | SF-539 > 10 µM | HOP-92 > 10 µM | PC-3 > 10 µM | T47D > 10 µM | MDA-MB-435 > 10 µM | Malme-3M > 10 µM | MOLT-4 > 10 µM | OVCAR-3 > 10 µM | MDA-MB-231 > 10 µM | RPMI-8226 > 10 µM | IGROV-1 > 10 µM | HCC 2998 > 10 µM
> 10 µM: HCT-15

CCOC(=O)C1(C(=O)OCC)[C@H](c2ccccc2)C2=NO[C@@H]3CCC[C@H]1[C@H]23
43.6 µM: HCT-15
inactive: HT-29 35.8 µM | TK-10 63.2 µM | HL-60 33.8 µM | SK-OV-3 30.1 µM | NCI/ADR-RES 39.4 µM | MDA-N 31.2 µM | SK-MEL-28 > 100 µM | 786-0 82.2 µM | SR 30.8 µM | NCI-H522 42.9 µM | SK-MEL-5 31.3 µM | SNB-19 > 100 µM | U-251 49.9 µM | UACC-62 15.2 µM | COLO 205 33 µM | OVCAR-8 75.3 µM | M14 36 µM | NCI-H460 60.5 µM | K562 21.3 µM | KM12 34.8 µM | MCF7 41.4 µM | CAKI-1 48.3 µM | BT-549 44.8 µM | Hs-578T > 100 µM | UACC-257 31.6 µM | SK-MEL-2 40.9 µM | CCRF-CEM 35.2 µM | SF-268 > 100 µM | LOX IMVI > 100 µM | SF-295 33.4 µM | UO-31 57.4 µM | SNB-75 30.1 µM | HOP-62 20.5 µM | OVCAR-4 37.9 µM | SW-620 58.1 µM | OVCAR-5 65.6 µM | SN12C > 100 µM | ACHN 84.3 µM | DU-145 > 100 µM | NCI-H23 57.1 µM | A549 55.6 µM | NCI-H226 32.9 µM | EKVX 27.9 µM | HCT-116 54.1 µM | RXF 393 52.1 µM | SF-539 > 100 µM | HOP-92 54 µM | PC-3 49.3 µM | T47D 26.5 µM | MDA-MB-435 21.4 µM | Malme-3M > 100 µM | MOLT-4 15.4 µM | OVCAR-3 25.1 µM | MDA-MB-231 75.7 µM | RPMI-8226 14.6 µM | IGROV-1 56.8 µM | HCC 2998 22.1 µM

Cc1cc2ccccc2n1CC(=O)N1CCCC1
> 100 µM: HCT-15
inactive: HT-29 > 100 µM | TK-10 > 100 µM | HL-60 > 100 µM | SK-OV-3 > 100 µM | NCI/ADR-RES > 100 µM | MDA-N > 100 µM | SK-MEL-28 > 100 µM | 786-0 > 100 µM | SR > 100 µM | NCI-H522 > 100 µM | SK-MEL-5 > 100 µM | SNB-19 > 100 µM | U-251 > 100 µM | UACC-62 > 100 µM | COLO 205 > 100 µM | OVCAR-8 > 100 µM | M14 > 100 µM | NCI-H460 > 100 µM | K562 > 100 µM | KM12 > 100 µM | MCF7 > 100 µM | BT-549 > 100 µM | Hs-578T > 100 µM | UACC-257 > 100 µM | SK-MEL-2 > 100 µM | CCRF-CEM > 100 µM | SF-268 > 100 µM | LOX IMVI > 100 µM | UO-31 > 100 µM | SNB-75 > 100 µM | HOP-62 > 100 µM | OVCAR-4 > 100 µM | SW-620 > 100 µM | OVCAR-5 > 100 µM | SN12C > 100 µM | ACHN > 100 µM | DU-145 > 100 µM | NCI-H23 > 100 µM | A549 > 100 µM | NCI-H226 > 100 µM | EKVX > 100 µM | HCT-116 > 100 µM | RXF 393 > 100 µM | SF-539 > 100 µM | HOP-92 > 100 µM | PC-3 > 100 µM | T47D > 100 µM | MDA-MB-435 > 100 µM | Malme-3M > 100 µM | MOLT-4 > 100 µM | OVCAR-3 > 100 µM | MDA-MB-231 > 100 µM | RPMI-8226 > 100 µM | IGROV-1 > 100 µM | HCC 2998 > 100 µM
